Values belong to the compound of their own block, whether it stands above or below them.
Legend:
[1] = system: Human immunodeficiency virus 1; test: Antiviral activity against HIV1; assay type: functional, organism-based
[2] = target: Human immunodeficiency virus type 1 reverse transcriptase (Human immunodeficiency virus 1, UniProt Q72547); test: Inhibition of recombinant HIV1 RT

Structure (SMILES): CC(C)Nc1cccnc1N1CCN(C(=O)c2cc3cc(NS(C)(=O)=O)ccc3[nH]2)CC1 [DELAVIRDINE]
- EC50 [1]: 0.021 µM

Structure (SMILES): O=c1[nH]c(SCc2ccccc2)nc(C(O)c2ccccc2)c1O (centres undefined)
- EC50 [1]: 36.5 µM
- IC50 [2]: > 200 µM

Further compounds by falling EC50 [1], results first:

- EC50 [1]: 175 µM
- IC50 [2]: > 200 µM
Structure (SMILES): O=C(c1ccc(Br)cc1)c1nc(SCc2ccccc2)[nH]c(=O)c1O

- EC50 [1]: 164 µM
- IC50 [2]: 113 µM
Structure (SMILES): O=C(c1ccc(Cl)cc1)c1nc(SCc2ccccc2)[nH]c(=O)c1O

- EC50 [1]: 36 µM
- IC50 [2]: 95.1 µM
Structure (SMILES): O=C(c1ccccc1)c1nc(SCc2ccccc2)[nH]c(=O)c1O
